Experimental data: ChEMBL document CHEMBL4251748, “Discovery of Cytochrome P450 4F11 Activated Inhibitors of Stearoyl Coenzyme A Desaturase” (J Med Chem, 2018)

Columns and labels:
NCI-H1155 [1] = experiment: Cytotoxicity against human NCI-H1155 cells expressing CYP4F11 incubated for 4 days in presence of sodium oleate; format: functional, cell-based; settings: NCI-H1155, 96 h
NCI-H1155 [2] = experiment: Cytotoxicity against human NCI-H1155 cells expressing pLVX empty vector incubated for 4 days; format: functional, cell-based; settings: NCI-H1155, 96 h
[3] = target: T1, Acyl-CoA desaturase 1 (Mus musculus) (UniProt P13516); experiment: Inhibition of SCD1 in CD1 mouse liver at 100 nM using stearoyl [9,10-3H] CoA as substrate and NADPH incubated for 2 hrs by scintillation counting method
T1 sequence (whole entry): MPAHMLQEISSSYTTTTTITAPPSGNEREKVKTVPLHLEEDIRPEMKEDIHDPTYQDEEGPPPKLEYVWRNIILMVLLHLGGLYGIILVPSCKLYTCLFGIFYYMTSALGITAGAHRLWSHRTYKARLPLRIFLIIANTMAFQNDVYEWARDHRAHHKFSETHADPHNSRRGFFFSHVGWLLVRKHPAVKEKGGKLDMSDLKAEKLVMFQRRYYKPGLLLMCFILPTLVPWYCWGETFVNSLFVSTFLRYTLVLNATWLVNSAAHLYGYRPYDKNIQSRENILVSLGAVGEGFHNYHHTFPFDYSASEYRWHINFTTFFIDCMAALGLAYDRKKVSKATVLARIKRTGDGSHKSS

NCI-H2122 [4] = experiment: Cytotoxicity against human NCI-H2122 cells incubated for 4 days; format: functional, cell-based; settings: NCI-H2122, 96 h
NCI-H1155 [5] = experiment: Cytotoxicity against human NCI-H1155 cells expressing CYP4F11 incubated for 4 days; format: functional, cell-based; settings: NCI-H1155, 96 h
NCI-H1155 [6] = experiment: Cytotoxicity against human NCI-H1155 cells incubated for 4 days in presence of sodium oleate; format: functional, cell-based; settings: NCI-H1155, 96 h
[7] = Drug level in human NCI-H1155 cells after 4 hrs by LC-MS/MS analysis; format: ADME, cell-based; settings: nci-h1155, 4 h
CYP4F11 = target: T2, CYP4F11 (Homo sapiens, UniProt Q9HBI6); experiment: Drug metabolism in human NCI-H1155 cells assessed as CYP4F11-meidated O-demethylation by measuring half life at 500 nM by LC-MS/MS analysis; format: ADME, cell-based
T2 sequence (Q9HBI6 whole entry): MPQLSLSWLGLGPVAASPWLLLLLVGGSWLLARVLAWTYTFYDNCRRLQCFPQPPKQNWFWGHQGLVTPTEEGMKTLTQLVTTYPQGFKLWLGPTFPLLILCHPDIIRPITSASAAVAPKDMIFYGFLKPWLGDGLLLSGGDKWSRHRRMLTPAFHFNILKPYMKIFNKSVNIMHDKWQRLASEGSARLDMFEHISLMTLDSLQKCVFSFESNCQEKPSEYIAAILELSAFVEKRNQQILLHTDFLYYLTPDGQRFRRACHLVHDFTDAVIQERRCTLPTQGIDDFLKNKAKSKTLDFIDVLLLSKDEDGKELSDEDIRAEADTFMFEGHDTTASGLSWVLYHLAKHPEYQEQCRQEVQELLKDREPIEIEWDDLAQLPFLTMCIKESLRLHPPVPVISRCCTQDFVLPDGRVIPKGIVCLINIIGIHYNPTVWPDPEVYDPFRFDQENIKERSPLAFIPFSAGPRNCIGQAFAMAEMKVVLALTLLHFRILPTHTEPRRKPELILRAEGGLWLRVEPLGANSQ

[8] = Half life in human NCI-H1155 cells at 500 nM by LC-MS/MS analysis; format: ADME, cell-based
[9] = Cytotoxicity against human HCC366 cells; format: functional, cell-based
NCI-H1993 = experiment: Cytotoxicity against human NCI-H1993 cells; format: functional, cell-based
NCI-H1155 [10] = experiment: Cytotoxicity against human NCI-H1155 cells; format: functional, cell-based
HCC44 [11] = experiment: Cytotoxicity against human HCC44 cells; format: functional, cell-based
NCI-H1395 = experiment: Cytotoxicity against human NCI-H1395 cells; format: functional, cell-based
HCC95 [12] = experiment: Cytotoxicity against human HCC95 cells; format: functional, cell-based
HCC44 [13] = experiment: Cytotoxicity against human HCC44 cells at > 50 uM relative to control; format: functional
[14] = Cytotoxicity against human NCI-H2073 cells; format: functional, cell-based
[15] = Half life in mouse liver S9 fraction by LC-MS/MS analysis; format: ADME, subcellular
NCI-H2122 [16] = experiment: Cytotoxicity against human NCI-H2122 cells at > 50 uM relative to control; format: functional
NCI-H2009 = experiment: Cytotoxicity against human NCI-H2009 cells; format: functional, cell-based
NCI-H460 [17] = experiment: Cytotoxicity against human NCI-H460 cells at > 50 uM relative to control; format: functional
NCI-H2122 [18] = experiment: Cytotoxicity against human NCI-H2122 cells; format: functional, cell-based
NCI-H460 [19] = experiment: Cytotoxicity against human NCI-H460 cells; format: functional, cell-based
HCC4017 = experiment: Cytotoxicity against human HCC4017 cells; format: functional, cell-based
HCC95 [20] = experiment: Cytotoxicity against human HCC95 cells at > 50 uM relative to control; format: functional
[21] = Cytotoxicity against human NCI-H1819 cells; format: functional, cell-based

SMILES | EC50 (NCI-H1155 [1]) | EC50 (NCI-H1155 [2]) | EC50 (NCI-H2122 [4]) | EC50 (NCI-H1155 [5]) | EC50 (NCI-H1155 [6]) | also measured
O=C(NCCc1ccc(O)cc1)c1ccc2ccccc2n1 | 35 µM | 18 µM | > 50 µM | 17 µM | 46 µM | inhibition [3]: 31%
O=C(NCCc1ccc(O)cc1)C(=O)NC1CC1 | > 50 µM | > 50 µM | > 50 µM | > 50 µM | > 50 µM | inhibition [3]: 0%
Cc1ccccc1C(=O)c1ccc(C(=O)NC(=O)NCCc2ccc(O)cc2)cc1 | – | – | 1.5 µM | – | – | inhibition [3]: 57%
COc1ccc(CCNC(=O)c2ccc3ccccc3n2)cc1 | > 50 µM | > 50 µM | > 50 µM | > 50 µM | > 50 µM | –
COc1ccc(CCNC(=O)C(=O)NC2CC2)cc1 | > 50 µM | > 50 µM | > 50 µM | > 50 µM | > 50 µM | Drug uptake [7]: 80 nM; half-life at 0.5 µM (CYP4F11): 4.7 h; half-life at 0.5 µM [8]: > 48 h
COc1ccc(CCNC(=O)C(=O)Nc2ccc(Cl)cc2)cc1 | > 50 µM | 36 µM | 0.22 µM | 0.67 µM | > 50 µM | EC50 [9]: > 10 µM; EC50 (NCI-H1993): > 10 µM; EC50 (NCI-H1155 [10]): > 10 µM; EC50 (HCC44 [11]): < 1 µM; EC50 (NCI-H1395): > 10 µM; EC50 (HCC95 [12]): < 1 µM; Activity (HCC44 [13]): >95%; EC50 [14]: > 10 µM; half-life [15]: 0.117 h; Activity (NCI-H2122 [16]): >95%; EC50 (NCI-H2009): > 10 µM; Activity (NCI-H460 [17]): >95%; EC50 (NCI-H2122 [18]): < 1 µM; EC50 (NCI-H460 [19]): < 1 µM; EC50 (HCC4017): > 10 µM; Activity (HCC95 [20]): >95%; EC50 [21]: > 10 µM
COc1ccc(CC(C)NC(=O)C(=O)Nc2ccc(Cl)cc2)cc1 (centres undefined) | 7.6 µM | 9.5 µM | 3.53 µM | 16.4 µM | 12 µM | –
COc1ccc(CNC(=O)C(=O)Nc2ccc(Cl)cc2)cc1 | – | – | – | – | – | Drug uptake [7]: 340 nM; half-life at 0.5 µM [8]: > 48 h
O=C(NCCc1ccc(O)cc1)C(=O)Nc1ccc(Cl)cc1 | 21 µM | 0.39 µM | 0.26 µM | 0.37 µM | 37 µM | half-life [15]: 1.18 h
C#CCOc1ccc(C(=O)c2ccc(NC(=O)C(=O)NCCc3ccc(OC)cc3)cc2)cc1 | > 50 µM | 8.5 µM | 0.028 µM | 0.12 µM | 16 µM | Drug uptake [7]: 870 nM; half-life at 0.5 µM (CYP4F11): 28 h; half-life at 0.5 µM [8]: > 48 h
COc1ccc(CCNC(=O)C(=O)Nc2ccccn2)cc1 | – | – | > 50 µM | – | – | –
COc1ccc(CCNC(=O)C(=O)Nc2ccc(Cl)c(Cl)c2)cc1 | – | – | 0.49 µM | – | – | –
COc1ccc(CCNC(=O)C(=O)Nc2cccnc2F)cc1 | – | – | > 50 µM | – | – | –
CCOc1ccc(CCNC(=O)C(=O)Nc2ccc(Cl)cc2)cc1 | – | – | > 50 µM | – | – | –
O=C(NCCc1ccc(Br)cc1)C(=O)Nc1ccc(Cl)cc1 | – | – | > 50 µM | – | – | –
COc1ccc(CCNC(=O)NC(=O)c2ccc(C(=O)c3ccccc3)cc2)cc1 | – | – | 0.11 µM | – | – | –
COc1ccc(CCNC(=O)C(=O)Nc2ccc(F)c(Cl)c2)cc1 | – | – | 0.74 µM | – | – | –
COc1ccc(CCNC(=O)C(=O)Nc2ccc(Br)cn2)cc1 | – | – | 0.29 µM | – | – | –
COc1ccc(CCNC(=O)C(=O)Nc2cccc(C#N)c2)cc1 | – | – | 0.41 µM | – | – | –
COc1ccc(CCNC(=O)C(=O)Nc2ccc(C)c(Cl)c2)cc1 | – | – | 0.6 µM | – | – | –
CC(Cc1ccc(O)cc1)NC(=O)C(=O)Nc1ccc(Cl)cc1 (centres undefined) | 13 µM | 11.7 µM | 5.1 µM | 11.2 µM | 10 µM | inhibition [3]: 24%
CCOc1cccc(NC(=O)C(=O)NCCc2ccc(OC)cc2)c1 | – | – | 24 µM | – | – | –
COc1ccc(CCNC(=O)c2cnc3ccccc3n2)cc1 | – | – | > 50 µM | – | – | –
COc1ccc(C(C)CNC(=O)C(=O)Nc2ccc(Cl)cc2)cc1 (centres undefined) | > 50 µM | > 50 µM | 3.66 µM | > 50 µM | > 50 µM | –
COc1ccc(CCNC(=O)C(=O)Nc2ccc(Cl)cc2)cc1OC | – | – | > 50 µM | – | – | –
COc1ccc(CCNC(=O)C(=O)Nc2cnccc2C)cc1 | – | – | > 50 µM | – | – | –
COc1ccc(CCNC(=O)C(=O)NCCc2ccc(OC)cc2)cc1 | – | – | > 50 µM | – | – | –
COc1ccc(CCNC(=O)NC(=O)c2ccc(C(=O)c3ccccc3C)cc2)cc1 | – | – | 0.32 µM | – | – | –
O=C(NCCc1ccc(O)cc1)NC(=O)c1ccc(COc2ccccc2)cc1 | 6.4 µM | 0.007 µM | 0.011 µM | 0.051 µM | 12 µM | half-life [15]: > 4 h; inhibition [3]: 96%
